Laboratory results as given in ChEMBL document CHEMBL3885881, “DrugMatrix”.

Species on record: Rattus norvegicus
Experiment: DrugMatrix - Regimen: Daily Repeat
Assay type: toxicity, organism-based, Sprague-Dawley
Set-up: regimen Daily Repeat, gender Male, age 6-8 weeks
Settings: in vivo, iv, vehicle 100 % SALINE; for ABSOLUTE BASOPHIL / ABSOLUTE EOSINOPHIL / ABSOLUTE LYMPHOCYTE / ABSOLUTE MONOCYTE / ABSOLUTE SEGMENTED NEUTROPHIL / BASOPHIL / EOSINOPHIL / ERYTHROCYTE COUNT / HEMATOCRIT / HEMOGLOBIN / LEUKOCYTE COUNT / LYMPHOCYTE / MEAN CORPUSCULAR HEMOGLOBIN / MEAN CORPUSCULAR HEMOGLOBIN CONCENTRATION / MEAN CORPUSCULAR VOLUME / MONOCYTE / NEUTROPHIL / NUCLEATED RED BLOOD CELLS / PLATELET COUNT: tissue Blood; for ALANINE AMINOTRANSFERASE / ALBUMIN / ALKALINE PHOSPHATASE / ASPARTATE AMINOTRANSFERASE / BLOOD UREA NITROGEN / CARBON DIOXIDE / CHLORIDE / CHOLESTEROL / CREATINE PHOSPHOKINASE / CREATININE / GLUCOSE / LACTATE DEHYDROGENASE / LIPASE / PHOSPHORUS / POTASSIUM / SODIUM / TOTAL BILIRUBIN / TOTAL PROTEIN / URIC ACID: tissue Plasma
[1] = 0 mg/kg, 72 h, dose level Control, time 3 day
[2] = 0 mg/kg, 120 h, dose level Control, time 5 day
[3] = 0.05 mg/kg, 72 h, dose level Low, time 3 day
[4] = 0.05 mg/kg, 120 h, dose level Low, time 5 day

CC[C@]1(O)C[C@H]2CN(CCc3c([nH]c4ccccc34)[C@@](C(=O)OC)(c3cc4c(cc3OC)N(C=O)[C@H]3[C@@](O)(C(=O)OC)[C@H](OC(C)=O)[C@]5(CC)C=CCN6CC[C@]43[C@@H]65)C2)C1 [VINCRISTINE]
ABSOLUTE BASOPHIL [1]: 0 CELLS/uL | ABSOLUTE EOSINOPHIL [1]: 0 CELLS/uL | ABSOLUTE LYMPHOCYTE [1]: 7637.67 CELLS/uL | ABSOLUTE MONOCYTE [1]: 67.83 CELLS/uL | ABSOLUTE SEGMENTED NEUTROPHIL [1]: 661.17 CELLS/uL | BASOPHIL [1]: 0% | EOSINOPHIL [1]: 0% | ERYTHROCYTE COUNT [1]: 5.38 x10E6/uL | HEMATOCRIT [1]: 33.67% | HEMOGLOBIN [1]: 12.88 G/DL | LEUKOCYTE COUNT [1]: 8.37 x10E3/uL | LYMPHOCYTE [1]: 91.17% | MEAN CORPUSCULAR HEMOGLOBIN [1]: 23.95 pg | MEAN CORPUSCULAR HEMOGLOBIN CONCENTRATION [1]: 38.23 G/DL | MEAN CORPUSCULAR VOLUME [1]: 62.6 fL | MONOCYTE [1]: 0.83% | NEUTROPHIL [1]: 8% | NUCLEATED RED BLOOD CELLS [1]: 0.17 /100WBC | PLATELET COUNT [1]: 865 x10E3/uL | ALANINE AMINOTRANSFERASE [1]: 51.67 u/L | ALBUMIN [1]: 3.97 G/DL | ALKALINE PHOSPHATASE [1]: 351.17 u/L | ASPARTATE AMINOTRANSFERASE [1]: 82.33 u/L | BLOOD UREA NITROGEN [1]: 15.17 mg/dL | CARBON DIOXIDE [1]: 34.5 mmol/L | CHLORIDE [1]: 100 MEQ/L | CHOLESTEROL [1]: 80.33 mg/dL | CREATINE PHOSPHOKINASE [1]: 316.5 u/L | CREATININE [1]: 0.17 mg/dL | GLUCOSE [1]: 149.17 mg/dL | LACTATE DEHYDROGENASE [1]: 105.67 u/L | LIPASE [1]: 9.5 u/L | PHOSPHORUS [1]: 10.87 mg/dL | POTASSIUM [1]: 5.47 MEQ/L | SODIUM [1]: 144.2 MEQ/L | TOTAL BILIRUBIN [1]: 0.2 mg/dL | TOTAL PROTEIN [1]: 5.83 G/DL | URIC ACID [1]: 0.83 mg/dL | ABSOLUTE BASOPHIL [2]: 0 CELLS/uL | ABSOLUTE EOSINOPHIL [2]: 0 CELLS/uL | ABSOLUTE LYMPHOCYTE [2]: 6333.5 CELLS/uL | ABSOLUTE MONOCYTE [2]: 38.83 CELLS/uL | ABSOLUTE SEGMENTED NEUTROPHIL [2]: 661 CELLS/uL | BASOPHIL [2]: 0% | EOSINOPHIL [2]: 0% | ERYTHROCYTE COUNT [2]: 5.44 x10E6/uL | HEMATOCRIT [2]: 34.17% | HEMOGLOBIN [2]: 13.22 G/DL | LEUKOCYTE COUNT [2]: 7.03 x10E3/uL | LYMPHOCYTE [2]: 90.17% | MEAN CORPUSCULAR HEMOGLOBIN [2]: 24.38 pg | MEAN CORPUSCULAR HEMOGLOBIN CONCENTRATION [2]: 38.7 G/DL | MEAN CORPUSCULAR VOLUME [2]: 62.95 fL | MONOCYTE [2]: 0.5% | NEUTROPHIL [2]: 9.33% | NUCLEATED RED BLOOD CELLS [2]: 0 /100WBC | PLATELET COUNT [2]: 924.33 x10E3/uL | ALANINE AMINOTRANSFERASE [2]: 52.5 u/L | ALBUMIN [2]: 3.97 G/DL | ALKALINE PHOSPHATASE [2]: 364.83 u/L | ASPARTATE AMINOTRANSFERASE [2]: 82.5 u/L | BLOOD UREA NITROGEN [2]: 17 mg/dL | CARBON DIOXIDE [2]: 32.33 mmol/L | CHLORIDE [2]: 99.6 MEQ/L | CHOLESTEROL [2]: 75.83 mg/dL | CREATINE PHOSPHOKINASE [2]: 419 u/L | CREATININE [2]: 0.21 mg/dL | GLUCOSE [2]: 155 mg/dL | LACTATE DEHYDROGENASE [2]: 111.5 u/L | LIPASE [2]: 11.33 u/L | PHOSPHORUS [2]: 10.32 mg/dL | POTASSIUM [2]: 5.37 MEQ/L | SODIUM [2]: 144.64 MEQ/L | TOTAL BILIRUBIN [2]: 0.18 mg/dL | TOTAL PROTEIN [2]: 5.98 G/DL | URIC ACID [2]: 0.62 mg/dL | ABSOLUTE BASOPHIL [3]: 0 CELLS/uL | ABSOLUTE EOSINOPHIL [3]: 50 CELLS/uL | ABSOLUTE LYMPHOCYTE [3]: 6489 CELLS/uL | ABSOLUTE MONOCYTE [3]: 75.67 CELLS/uL | ABSOLUTE SEGMENTED NEUTROPHIL [3]: 285.33 CELLS/uL | BASOPHIL [3]: 0% | EOSINOPHIL [3]: 0.67% | ERYTHROCYTE COUNT [3]: 5.18 x10E6/uL | HEMATOCRIT [3]: 30.77% | HEMOGLOBIN [3]: 12.07 G/DL | LEUKOCYTE COUNT [3]: 6.9 x10E3/uL | LYMPHOCYTE [3]: 94.33% | MEAN CORPUSCULAR HEMOGLOBIN [3]: 23.3 pg | MEAN CORPUSCULAR HEMOGLOBIN CONCENTRATION [3]: 39.2 G/DL | MEAN CORPUSCULAR VOLUME [3]: 59.47 fL | MONOCYTE [3]: 1% | NEUTROPHIL [3]: 4% | NUCLEATED RED BLOOD CELLS [3]: 0.33 /100WBC | PLATELET COUNT [3]: 1561 x10E3/uL | ALANINE AMINOTRANSFERASE [3]: 52.67 u/L | ALBUMIN [3]: 4.03 G/DL | ALKALINE PHOSPHATASE [3]: 301.33 u/L | ASPARTATE AMINOTRANSFERASE [3]: 100 u/L | BLOOD UREA NITROGEN [3]: 13.67 mg/dL | CARBON DIOXIDE [3]: 35.67 mmol/L | CHLORIDE [3]: 98 MEQ/L | CHOLESTEROL [3]: 80.67 mg/dL | CREATINE PHOSPHOKINASE [3]: 355.67 u/L | CREATININE [3]: 0.15 mg/dL | GLUCOSE [3]: 138.33 mg/dL | LACTATE DEHYDROGENASE [3]: 108.33 u/L | LIPASE [3]: 9 u/L | PHOSPHORUS [3]: 10.47 mg/dL | POTASSIUM [3]: 5.91 MEQ/L | SODIUM [3]: 142.8 MEQ/L | TOTAL BILIRUBIN [3]: 0.17 mg/dL | TOTAL PROTEIN [3]: 6 G/DL | URIC ACID [3]: 0.5 mg/dL | ABSOLUTE BASOPHIL [4]: 0 CELLS/uL | ABSOLUTE EOSINOPHIL [4]: 15.67 CELLS/uL | ABSOLUTE LYMPHOCYTE [4]: 5856.67 CELLS/uL | ABSOLUTE MONOCYTE [4]: 77.33 CELLS/uL | ABSOLUTE SEGMENTED NEUTROPHIL [4]: 217 CELLS/uL | BASOPHIL [4]: 0% | EOSINOPHIL [4]: 0.33% | ERYTHROCYTE COUNT [4]: 4.27 x10E6/uL | HEMATOCRIT [4]: 27.3% | HEMOGLOBIN [4]: 10.7 G/DL | LEUKOCYTE COUNT [4]: 6.17 x10E3/uL | LYMPHOCYTE [4]: 94% | MEAN CORPUSCULAR HEMOGLOBIN [4]: 25.1 pg | MEAN CORPUSCULAR HEMOGLOBIN CONCENTRATION [4]: 39.17 G/DL | MEAN CORPUSCULAR VOLUME [4]: 64.03 fL | MONOCYTE [4]: 1.33% | NEUTROPHIL [4]: 4.33% | NUCLEATED RED BLOOD CELLS [4]: 0 /100WBC | PLATELET COUNT [4]: 1370.67 x10E3/uL | ALANINE AMINOTRANSFERASE [4]: 42 u/L | ALBUMIN [4]: 3.8 G/DL | ALKALINE PHOSPHATASE [4]: 313 u/L | ASPARTATE AMINOTRANSFERASE [4]: 132.33 u/L | BLOOD UREA NITROGEN [4]: 18.67 mg/dL | CARBON DIOXIDE [4]: 29.67 mmol/L | CHLORIDE [4]: 99.67 MEQ/L | CHOLESTEROL [4]: 65 mg/dL | CREATINE PHOSPHOKINASE [4]: 254 u/L | CREATININE [4]: 0.18 mg/dL | GLUCOSE [4]: 187.33 mg/dL | LACTATE DEHYDROGENASE [4]: 136.67 u/L | LIPASE [4]: 9 u/L | PHOSPHORUS [4]: 10.8 mg/dL | POTASSIUM [4]: 5.21 MEQ/L | SODIUM [4]: 143.2 MEQ/L | TOTAL BILIRUBIN [4]: 0.2 mg/dL | TOTAL PROTEIN [4]: 5.4 G/DL | URIC ACID [4]: 0.73 mg/dL
